pIC50: −log10 of the molar value.
What follows are molecules tested against T1, full-length human PKCι (Homo sapiens, UniProt P41743) (assay: PKCι IC50 IMAP assay, full-length PKCι at 150 μM ATP). Conditions: read-out: IC50 in IMAP assay against full length PKCi at 150 μM ATP.
T1 construct: Recombinant, full-length human PKCι expressed in Sf21 insect cells is also commercially available; purchased; host or cells: Sf21 insect cells
T1 sequence (P41743 1-596): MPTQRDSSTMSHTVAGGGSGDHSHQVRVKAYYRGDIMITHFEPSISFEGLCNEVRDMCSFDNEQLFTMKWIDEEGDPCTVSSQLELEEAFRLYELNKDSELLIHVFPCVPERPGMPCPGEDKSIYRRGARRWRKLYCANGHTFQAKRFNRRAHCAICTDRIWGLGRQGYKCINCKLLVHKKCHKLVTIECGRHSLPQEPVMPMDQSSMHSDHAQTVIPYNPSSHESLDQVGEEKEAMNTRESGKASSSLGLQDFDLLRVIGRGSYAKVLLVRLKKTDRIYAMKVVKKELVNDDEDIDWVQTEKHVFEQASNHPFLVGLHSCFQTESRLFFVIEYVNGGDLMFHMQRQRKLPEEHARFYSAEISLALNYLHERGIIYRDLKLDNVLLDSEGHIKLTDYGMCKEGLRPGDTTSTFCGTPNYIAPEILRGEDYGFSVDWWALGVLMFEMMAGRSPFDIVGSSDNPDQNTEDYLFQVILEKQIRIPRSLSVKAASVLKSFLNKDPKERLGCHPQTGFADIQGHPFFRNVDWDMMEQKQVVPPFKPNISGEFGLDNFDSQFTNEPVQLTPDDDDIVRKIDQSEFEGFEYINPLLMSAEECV
Type: biochemical
In short: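 Recombinant full-length human PKCι (Sf21-expressed, typically 15 pM) phosphorylated 100 nM 5FAM-labelled PKCε pseudosubstrate-derived peptide with 150 μM ATP (5× KM^APP) in 18 mM tris-HCl pH7.5, 9 mM MgCl2, EGTA, DTT, 4% DMSO. After 60 min at room temperature, IMAP binding reagent was added for 2 h and fluorescence polarisation read.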

SMILES | pIC50
FC(F)(F)c1ccc(Cl)c(Nc2cc(-c3nc(N4CCNCC4)c4c(C5CC5)cncc4n3)ccn2)c1 [Example 597, (2-Chloro-5-trifluoromethyl-phenyl)-[4-(5-cyclopropyl-4-piperazin-1-yl-pyrido[3,4-d]pyrimidin-2-yl)-pyridin-2-yl]-amine] | 4.40 to 5.00
FC(F)(F)C1CN(c2nc(-c3ccnc(NC4CC4)c3)nc3cncc(C4CC4)c23)CCN1 (centres unmarked) [Example 508, Cyclopropyl-{4-[5-cyclopropyl-4-(3-trifluoromethyl-piperazin-1-yl)-pyrido[3,4-d]pyrimidin-2-yl]-pyridin-2-yl}-amine] | > 7.00
Fc1ccc(C2CC2)cc1Nc1cc(-c2nc(N3CCNCC3)c3c(C4CC4)cncc3n2)ccn1 [Example 667, (5-Cyclopropyl-2-fluoro-phenyl)-[4-(5-cyclopropyl-4-piperazin-1-yl-pyrido[3,4-d]pyrimidin-2-yl)-pyridin-2-yl]-amine] | > 7.00
Cc1cccc(Nc2cc(-c3nc(N4CCNCC4)c4c(C5CC5)cncc4n3)ccn2)c1C [Example 540, [4-(5-Cyclopropyl-4-piperazin-1-yl-pyrido[3,4-d]pyrimidin-2-yl)-pyridin-2-yl]-(2,3-dimethyl-phenyl)-amine] | > 7.00
CC1(C)CN(c2nc(-c3ccnc4[nH]c(C(C)(C)C)cc34)nc3cncc(C4CCC4)c23)CCN1 [Example 2028, 2-(2-tert-Butyl-1H-pyrrolo[2,3-b]pyridin-4-yl)-5-cyclobutyl-4-(3,3-dimethyl-piperazin-1-yl)-pyrido[3,4-d]pyrimidine] | > 7.00
[2H]C1([2H])NC([2H])([2H])C([2H])([2H])N(c2nc(-c3ccnc(Nc4ccccc4)c3)nc3cncc(C4CC4)c23)C1([2H])[2H] [Example 636, {4-[5-Cyclopropyl-4-(2,2,3,3,5,5,6,6-octadeuterio-piperazin-1-yl)-pyrido[3,4-d]pyrimidin-2-yl]-pyridin-2-yl}-phenyl-amine] | > 7.00
COc1cncc2nc(-c3ccncc3)nc(N3CCN[C@H](Cc4ccccc4)C3)c12 [Example 37, (3R)-3-benzyl-1-[5-methoxy-2-(pyridin-4-yl)pyrido[3,4-d]pyrimidin-4-yl]piperazine] | > 7.00
Fc1ccc(F)c(Nc2cc(-c3nc(N4CCNCC4)c4c(C5CC5)cncc4n3)ccn2)c1 [Example 521, [4-(5-Cyclopropyl-4-piperazin-1-yl-pyrido[3,4-d]pyrimidin-2-yl)-pyridin-2-yl]-(2,5-difluoro-phenyl)-amine] | > 7.00
OC1(C2CN(c3nc(-c4ccnc(Cl)c4)nc4cncc(C5CC5)c34)CCN2)CC1 (centres unmarked) [Example 562, 1-{4-[2-(2-Chloro-pyridin-4-yl)-5-cyclopropyl-pyrido[3,4-d]pyrimidin-4-yl]-piperazin-2-yl}-cyclopropanol] | 6.00 to 7.00
c1cc(-c2nc(N3CCNCC3)c3c(C4CC4)cncc3n2)cc(NC23CC4CC(CC(C4)C2)C3)n1 [Example 285, Adamantan-1-yl-[4-(5-cyclopropyl-4-piperazin-1-yl-pyrido[3,4-d]pyrimidin-2-yl)-pyridin-2-yl]-amine] | > 7.00
COc1cncc2nc(-c3ccnc(Nc4cc(C(N)=O)ccn4)c3)nc(N3CCNCC3)c12 [Example 379, 2-[4-(5-Methoxy-4-piperazin-1-yl-pyrido[3,4-d]pyrimidin-2-yl)-pyridin-2-ylamino]-isonicotinamide] | > 7.00
c1cc(-c2nc(N3CCNCC3)c3c(C4CC4)cncc3n2)c2cc([C@H]3C[C@H]4CC[C@@H]3C4)[nH]c2n1 (racemic) [Example 2079, (±)-2-((endo)-2-Bicyclo[2.2.1]hept-2-yl-1H-pyrrolo[2,3-b]pyridin-4-yl)-5-cyclopropyl-4-piperazin-1-yl-pyrido[3,4-d]pyrimidine] | > 7.00
CS(=O)(=O)Nc1cccc(-c2nccc3c(NC[C@@H](N)Cc4ccccc4)nc(-c4ccncc4)nc23)c1 [Example 88, N-{3-[4-((S)-2-Amino-3-phenyl-propylamino)-2-pyridin-4-yl-pyrido[3,4-d]pyrimidin-8-yl]-phenyl}-methanesulfonamide] | 6.00 to 7.00
Cn1ccc(Nc2cc(-c3nc(N4CCN[C@@H](C(F)(F)F)C4)c4c(C5CC5)cncc4n3)ccn2)n1 [Example 2053, {4-[5-Cyclopropyl-4-((R)-3-trifluoromethyl-piperazin-1-yl)-pyrido[3,4-d]pyrimidin-2-yl]-pyridin-2-yl}-(1-methyl-1H-pyrazol-3-yl)-amine] | > 7.00
c1cc(-c2nc(N3CCNCC3)c3c(C4CC4)cncc3n2)c2cc(C3CCOCC3)[nH]c2n1 [Example 2111, 5-Cyclopropyl-4-piperazin-1-yl-2-[2-(tetrahydro-pyran-4-yl)-1H-pyrrolo[2,3-b]pyridin-4-yl]-pyrido[3,4-d]pyrimidine] | > 7.00
Clc1c[nH]c2nccc(-c3nc(N4CCNCC4)c4c(C5CC5)cncc4n3)c12 [Example 2087, 2-(3-Chloro-1H-pyrrolo[2,3-b]pyridin-4-yl)-5-cyclopropyl-4-piperazin-1-yl-pyrido[3,4-d]pyrimidine] | > 7.00
c1ccc(Nc2cc(-c3nc(N4CC5CNCC5C4)c4c(C5CC5)cncc4n3)ccn2)cc1 (centres unmarked) [Example 2131, {4-[5-Cyclopropyl-4-(hexahydro-pyrrolo[3,4-c]pyrrol-2-yl)-pyrido[3,4-d]pyrimidin-2-yl]-pyridin-2-yl}-phenyl-amine] | > 7.00
C[C@@H](Nc1cc(-c2nc(N3CCNC(C)(C)C3)c3c(C4CC4)cncc3n2)ccn1)C1CCCCC1 [Example 835, ((R)-1-Cyclohexyl-ethyl)-{4-[5-cyclopropyl-4-(3,3-dimethyl-piperazin-1-yl)-pyrido[3,4-d]pyrimidin-2-yl]-pyridin-2-yl}-amine] | > 7.00
Fc1cc(F)c(Nc2cc(-c3nc(N4CCNCC4)c4c(C5CC5)cnc(C5CC5)c4n3)ccn2)nc1F [Example 2187, [4-(5,8-Dicyclopropyl-4-piperazin-1-yl-pyrido[3,4-d]pyrimidin-2-yl)-pyridin-2-yl]-(3,5,6-trifluoro-pyridin-2-yl)-amine] | 6.00 to 7.00
Fc1cccc(F)c1-c1cc2c(-c3nc(N4CCNCC4)c4c(C5CCC5)cncc4n3)ccnc2[nH]1 [Example 2144, 5-Cyclobutyl-2-[2-(2,6-difluoro-phenyl)-1H-pyrrolo[2,3-b]pyridin-4-yl]-4-piperazin-1-yl-pyrido[3,4-d]pyrimidine] | > 7.00
O=C1CC(Nc2nc(-c3ccnc(Nc4c(F)cccc4F)c3)nc3cncc(C4CC4)c23)CCN1 (centres unmarked) [Example 2076, 4-{5-Cyclopropyl-2-[2-(2,6-difluoro-phenylamino)-pyridin-4-yl]-pyrido[3,4-d]pyrimidin-4-ylamino}-piperidin-2-one] | 6.00 to 7.00
CN1CCC(N(C)c2nc(-c3ccnc4[nH]c(C(F)(F)F)cc34)nc3cncc(C4CC4)c23)CC1 [Example 2081, [5-Cyclopropyl-2-(2-trifluoromethyl-1H-pyrrolo[2,3-b]pyridin-4-yl)-pyrido[3,4-d]pyrimidin-4-yl]-methyl-(1-methyl-piperidin-4-yl)-amine] | > 7.00
CN1CCC(Nc2nc(-c3ccnc(Nc4c(F)cccc4F)c3)nc3cncc(C4CC4)c23)CC1 [Example 2084, {5-Cyclopropyl-2-[2-(2,6-difluoro-phenylamino)-pyridin-4-yl]-pyrido[3,4-d]pyrimidin-4-yl}-(1-methyl-piperidin-4-yl)-amine] | > 7.00
COc1cncc2nc(-c3ccncc3)nc(N3CCNC(C(=O)NCCc4ccccc4)C3)c12 (centres unmarked) [Example 158, 4-(5-Methoxy-2-pyridin-4-yl-pyrido[3,4-d]pyrimidin-4-yl)-piperazine-2-carboxylic acid phenethyl-amide] | 5.00 to 6.00
c1cc(-c2nc(N3CCC4NCC[C@H]4C3)c3ccncc3n2)ccn1 (stereo partly drawn) [Example 67, 4-{4-[(3aS)-octahydro-1H-pyrrolo[3,2-c]-pyridin-5-yl]-pyrido[3,4-d]-pyrimidin-2-yl}-pyridine] | 4.40 to 5.00
O[C@H](CNc1nc(-c2ccncc2)nc2cnccc12)Cc1ccccc1 [Example 15, (2S)-1-phenyl-3-{[2-(pyridin-4-yl)pyrido[3,4-d]-pyrimidin-4-yl]-amino}propan-2-ol] | 5.00 to 6.00
Fc1cc(C2CC2)ccc1Nc1cc(-c2nc(N3CCNCC3)c3c(C4CC4)cncc3n2)ccn1 [Example 641, (4-Cyclopropyl-2-fluoro-phenyl)-[4-(5-cyclopropyl-4-piperazin-1-yl-pyrido[3,4-d]pyrimidin-2-yl)-pyridin-2-yl]-amine] | > 7.00
FC(F)(F)C1CN(c2nc(-c3ccncc3)nc3c(Cl)nccc23)CCN1 (centres unmarked) [Example 60, 1-[8-chloro-2-(pyridin-4-yl)-pyrido[3,4-d]-pyrimidin-4-yl]-3-(trifluoromethyl)-piperazine] | 5.00 to 6.00
CN(c1nc(-c2ccnc(Nc3ncc(F)cc3F)c2)nc2c(Cl)ncc(C3CC3)c12)C1CCNCC1 [Example 2170, {8-Chloro-5-cyclopropyl-2-[2-(3,5-difluoro-pyridin-2-ylamino)-pyridin-4-yl]-pyrido[3,4-d]pyrimidin-4-yl}-methyl-piperidin-4-yl-amine] | > 7.00

Source: patent US9914730B2, “Azaquinazoline inhibitors of Atypical protein Kinase C” (Ignyta, Inc., priority 2012, dated 2018)
